From article PMC5218480 (PLoS ONE, 2017)

Test system: MV-4-11 cells
Experiment: Gene expression microarray analysis (Affymetrix PrimeView) and GSEA
Type: cell-based, human
Parameters: RFU PODN (11730768_x_at) / Fold change /veh PODN (11730768_x_at) / RFU LINC00158 (11744669_a_at) / Fold change /veh LINC00158 (11744669_a_at) / RFU DUSP10 (11751237_a_at) / Fold change /veh DUSP10 (11751237_a_at) / RFU ID3 (11757404_x_at) / Fold change /veh ID3 (11757404_x_at) / RFU PLEKHG5 (11737974_s_at) / Fold change /veh PLEKHG5 (11737974_s_at) / RFU LRRC4B (11730491_at) / Fold change /veh LRRC4B (11730491_at) / RFU GIMAP4 (11747438_a_at) / Fold change /veh GIMAP4 (11747438_a_at) / RFU KRT8 (11758183_x_at) / Fold change /veh KRT8 (11758183_x_at) / RFU CNN1 (11734310_a_at) / Fold change /veh CNN1 (11734310_a_at) / RFU VPS37D (11726825_at) / Fold change /veh VPS37D (11726825_at) / RFU C10orf10 (11716522_x_at) / Fold change /veh C10orf10 (11716522_x_at) / RFU KIR2DL2 /// KIR2DL4 /// KIR2DL5A /// KIR2DL5B /// KIR2DS1 /// KIR2DS2 /// KIR2DS3 /// KIR2DS4 /// KIR3DL3 /// KIR3DL3 /// KIR3DS1 (11738374_at) / Fold change /veh KIR2DL2 /// KIR2DL4 /// KIR2DL5A /// KIR2DL5B /// KIR2DS1 /// KIR2DS2 /// KIR2DS3 /// KIR2DS4 /// KIR3DL3 /// KIR3DL3 /// KIR3DS1 (11738374_at) / RFU C1QL1 (11718748_at) / Fold change /veh C1QL1 (11718748_at) / RFU TMPRSS4 (11747572_a_at) / Fold change /veh TMPRSS4 (11747572_a_at) / RFU HAMP (11756126_x_at) / Fold change /veh HAMP (11756126_x_at) / RFU RNFT2 (11725882_a_at) / Fold change /veh RNFT2 (11725882_a_at) / RFU NR4A2 (11747474_a_at) / Fold change /veh NR4A2 (11747474_a_at) / RFU ABCC12 (11746883_a_at) / Fold change /veh ABCC12 (11746883_a_at) / RFU TMEM136 (11760407_x_at) / Fold change /veh TMEM136 (11760407_x_at) / RFU CLDN22 /// WWC2 (11732394_at) / Fold change /veh CLDN22 /// WWC2 (11732394_at) / RFU HLA-DPB1 (11760878_x_at) / Fold change /veh HLA-DPB1 (11760878_x_at) / RFU SPINT1 (11716480_a_at) / Fold change /veh SPINT1 (11716480_a_at) / RFU GAP43 (11754022_s_at) / Fold change /veh GAP43 (11754022_s_at) / RFU A4GNT (11735810_at) / Fold change /veh A4GNT (11735810_at) / RFU PRB3 (11715151_x_at) / Fold change /veh PRB3 (11715151_x_at) / RFU TUBB4B (11761932_at) / Fold change /veh TUBB4B (11761932_at) / RFU CAPN14 (11732068_a_at) / Fold change /veh CAPN14 (11732068_a_at) / RFU TMCC2 (11721928_a_at) / Fold change /veh TMCC2 (11721928_a_at) / RFU IRGQ (11745062_a_at) / Fold change /veh IRGQ (11745062_a_at) / RFU FAM174B (11720279_a_at) / Fold change /veh FAM174B (11720279_a_at) / RFU TMPRSS4 (11748680_a_at) / Fold change /veh TMPRSS4 (11748680_a_at) / RFU FAM212B (11763350_a_at) / Fold change /veh FAM212B (11763350_a_at) / RFU PLEKHG5 (11743358_a_at) / Fold change /veh PLEKHG5 (11743358_a_at) / RFU ZSCAN30 (11745921_a_at) / Fold change /veh ZSCAN30 (11745921_a_at) / RFU CMKLR1 (11741424_a_at) / Fold change /veh CMKLR1 (11741424_a_at) / RFU LOC101060620 /// MAPK8IP1 (11723275_at) / Fold change /veh LOC101060620 /// MAPK8IP1 (11723275_at) / RFU SPTSSB (11747773_x_at) / Fold change /veh SPTSSB (11747773_x_at) / RFU PRSS12 (11739890_at) / Fold change /veh PRSS12 (11739890_at) / RFU BIN1 (11741810_x_at) / Fold change /veh BIN1 (11741810_x_at) / RFU WNT11 (11732464_a_at) / Fold change /veh WNT11 (11732464_a_at) / RFU C10orf10 (11716521_a_at) / Fold change /veh C10orf10 (11716521_a_at) / RFU C5orf56 (11738089_at) / Fold change /veh C5orf56 (11738089_at) / RFU CYB561 (11721691_x_at) / Fold change /veh CYB561 (11721691_x_at) / RFU ANKRD19P (11752326_a_at) / Fold change /veh ANKRD19P (11752326_a_at) / RFU OR2T12 /// OR2T33 /// OR2T8 (11738714_s_at) / Fold change /veh OR2T12 /// OR2T33 /// OR2T8 (11738714_s_at) / RFU VCAN (11748164_a_at) / Fold change /veh VCAN (11748164_a_at) / RFU JSRP1 (11732532_at) / Fold change /veh JSRP1 (11732532_at) / RFU KRTAP10-11 (11738290_x_at) / Fold change /veh KRTAP10-11 (11738290_x_at) / RFU MYO3A (11730013_a_at) / Fold change /veh MYO3A (11730013_a_at) / RFU EBF3 (11725865_a_at) / Fold change /veh EBF3 (11725865_a_at) / RFU CAMK2N1 (11719241_x_at) / Fold change /veh CAMK2N1 (11719241_x_at) / RFU C5orf56 (11738088_a_at) / Fold change /veh C5orf56 (11738088_a_at) / RFU OLFML3 (11715873_a_at) / Fold change /veh OLFML3 (11715873_a_at) / RFU LOC100653217 /// NTM (11731650_a_at) / Fold change /veh LOC100653217 /// NTM (11731650_a_at) / RFU MAPK11 (11762145_a_at) / Fold change /veh MAPK11 (11762145_a_at) / RFU FIZ1 (11724087_x_at) / Fold change /veh FIZ1 (11724087_x_at) / RFU OASL (11726364_x_at) / Fold change /veh OASL (11726364_x_at) / RFU SOX15 (11748057_x_at) / Fold change /veh SOX15 (11748057_x_at) / RFU CD79A (11719716_a_at) / Fold change /veh CD79A (11719716_a_at) / RFU HIST1H1D (11736915_at) / Fold change /veh HIST1H1D (11736915_at) / RFU CASKIN2 (11723855_a_at) / Fold change /veh CASKIN2 (11723855_a_at) / RFU LOC730098 (11760151_x_at) / Fold change /veh LOC730098 (11760151_x_at) / RFU OR4N2 (11742367_at) / Fold change /veh OR4N2 (11742367_at) / RFU PRRT2 (11749266_a_at) / Fold change /veh PRRT2 (11749266_a_at) / RFU SNX32 (11753110_a_at) / Fold change /veh SNX32 (11753110_a_at) / RFU CDHR5 (11726645_a_at) / Fold change /veh CDHR5 (11726645_a_at) / RFU RCAN1 (11760418_a_at) / Fold change /veh RCAN1 (11760418_a_at) / RFU FAM167A (11723789_a_at) / Fold change /veh FAM167A (11723789_a_at) / RFU FAM26E (11764081_at) / Fold change /veh FAM26E (11764081_at) / RFU ISYNA1 (11749810_s_at) / Fold change /veh ISYNA1 (11749810_s_at) / RFU ACY1 (11761880_at) / Fold change /veh ACY1 (11761880_at) / RFU 11764098_at / Fold change /veh 11764098_at / RFU SAMD14 (11745864_x_at) / Fold change /veh SAMD14 (11745864_x_at) / RFU NPB (11741838_a_at) / Fold change /veh NPB (11741838_a_at) / RFU TMPRSS6 (11731388_a_at) / Fold change /veh TMPRSS6 (11731388_a_at) / RFU KRTAP10-2 (11738614_at) / Fold change /veh KRTAP10-2 (11738614_at) / RFU ARHGAP8 /// PRR5-ARHGAP8 (11727945_x_at) / Fold change /veh ARHGAP8 /// PRR5-ARHGAP8 (11727945_x_at) / RFU KRTAP5-7 /// NADSYN1 (11734609_at) / Fold change /veh KRTAP5-7 /// NADSYN1 (11734609_at) / RFU RASL12 (11751679_a_at) / Fold change /veh RASL12 (11751679_a_at) / RFU CDKN2B (11736163_a_at) / Fold change /veh CDKN2B (11736163_a_at) / RFU PRF1 (11729649_at) / Fold change /veh PRF1 (11729649_at) / RFU, ZNF638 /// ZNF638-IT1 / Fold change vs veh, ZNF638 /// ZNF638-IT1 / RFU, PANK3 / Fold change vs veh, PANK3 / RFU, SH3YL1 / Fold change vs veh, SH3YL1 / RFU, ZEB2 / Fold change vs veh, ZEB2 / RFU, NRIP1 / Fold change vs veh, NRIP1 / RFU, PTTG1IP / Fold change vs veh, PTTG1IP / RFU, CAPN2 / Fold change vs veh, CAPN2 / RFU, MED14 / Fold change vs veh, MED14 / RFU, SNORA58 / Fold change vs veh, SNORA58 / RFU, C1orf63 / Fold change vs veh, C1orf63 / RFU, LRRFIP1 / Fold change vs veh, LRRFIP1 / RFU, NDUFAF7 / Fold change vs veh, NDUFAF7 / RFU, SLC12A2 / Fold change vs veh, SLC12A2 / RFU, IBTK / Fold change vs veh, IBTK / RFU, ESF1 / Fold change vs veh, ESF1 / Fold change vs veh, TMEM50B / RFU, TAOK1 / Fold change vs veh, TAOK1 / RFU, ACBD3 / Fold change vs veh, ACBD3 / RFU, TMA16 / Fold change vs veh, TMA16 / RFU, RWDD3 / Fold change vs veh, RWDD3 / RFU, BCAT1 / Fold change vs veh, BCAT1 / RFU, EDEM3 / Fold change vs veh, EDEM3 / RFU, TMEM33 / Fold change vs veh, TMEM33 / RFU, WDR75 / Fold change vs veh, WDR75 / RFU, AHCTF1 / Fold change vs veh, AHCTF1 / RFU, TFRC / Fold change vs veh, TFRC / RFU, ZDHHC17 / Fold change vs veh, ZDHHC17 / RFU, NOM1 / Fold change vs veh, NOM1 / RFU, ARL8B / Fold change vs veh, ARL8B / RFU, ZBTB11 / Fold change vs veh, ZBTB11 / RFU, TAMM41 / Fold change vs veh, TAMM41 / RFU, KIAA1704 /// LOC100996395 / Fold change vs veh, KIAA1704 /// LOC100996395 / RFU, ING1 / Fold change vs veh, ING1 / RFU, TRMT61B / Fold change vs veh, TRMT61B / RFU, FUBP3 / Fold change vs veh, FUBP3 / RFU, TP53 / Fold change vs veh, TP53 / RFU, TNKS2 / Fold change vs veh, TNKS2 / RFU, ZFP14 / Fold change vs veh, ZFP14 / RFU, ACTR2 / Fold change vs veh, ACTR2 / RFU, PPP3R1 / Fold change vs veh, PPP3R1 / RFU, PIK3R1 / Fold change vs veh, PIK3R1 / RFU, HNRNPA1 / Fold change vs veh, HNRNPA1 / RFU, RNF170 / Fold change vs veh, RNF170 / RFU, ZNF28 / Fold change vs veh, ZNF28 / RFU, RNGTT / Fold change vs veh, RNGTT / RFU, OGT / Fold change vs veh, OGT / RFU, BRD1 / Fold change vs veh, BRD1 / RFU, MARS / Fold change vs veh, MARS / RFU, ZNF655 / Fold change vs veh, ZNF655 / RFU, FAHD1 / Fold change vs veh, FAHD1 / RFU, BDP1 / Fold change vs veh, BDP1 / RFU, LRRCC1 / Fold change vs veh, LRRCC1 / RFU, ARID1A / Fold change vs veh, ARID1A / RFU, ZNF146 / Fold change vs veh, ZNF146 / RFU, ZNF330 / Fold change vs veh, ZNF330 / RFU, GPN3 / Fold change vs veh, GPN3 / RFU, C9orf123 / Fold change vs veh, C9orf123 / RFU, N4BP2L2 / Fold change vs veh, N4BP2L2 / RFU, ARFIP1 / Fold change vs veh, ARFIP1 / RFU, FAM179B / Fold change vs veh, FAM179B / RFU, BCL10 / Fold change vs veh, BCL10 / RFU, UHRF1BP1L / Fold change vs veh, UHRF1BP1L / RFU, BET1 / Fold change vs veh, BET1 / RFU, CNOT2 / Fold change vs veh, CNOT2 / RFU, ZNF268 / Fold change vs veh, ZNF268 / Fold change vs veh, ZNF507 / RFU, DGCR2 / Fold change vs veh, DGCR2 / RFU, WDSUB1 / Fold change vs veh, WDSUB1 / Fold change vs veh, HSP90B1 /// MIR3652 / RFU, ADSS / Fold change vs veh, ADSS / RFU, GK / Fold change vs veh, GK / RFU, ZNF148 / Fold change vs veh, ZNF148 / RFU, TAF9 / Fold change vs veh, TAF9 / RFU, SLC1A5 / Fold change vs veh, SLC1A5 / RFU, SLMO2 / Fold change vs veh, SLMO2 / RFU, ABCC4 / Fold change vs veh, ABCC4 / RFU, LOC101060439 /// RAP1B / Fold change vs veh, LOC101060439 /// RAP1B / RFU, RFX7 / Fold change vs veh, RFX7 / RFU, GTPBP10 / Fold change vs veh, GTPBP10 / RFU, CNEP1R1 / Fold change vs veh, CNEP1R1 / RFU, BIVM-ERCC5 /// ERCC5 / Fold change vs veh, BIVM-ERCC5 /// ERCC5 / RFU, ILF3 / Fold change vs veh, ILF3 / RFU 11762660_at / Fold change /veh 11762660_at / RFU VCAN (11757783_s_at) / Fold change /veh VCAN (11757783_s_at) / RFU DDX43 (11728927_at) / Fold change /veh DDX43 (11728927_at) / RFU KRT8 (11758188_x_at) / Fold change /veh KRT8 (11758188_x_at) / RFU NKD1 (11759106_at) / Fold change /veh NKD1 (11759106_at) / RFU SRD5A1 (11742802_a_at) / Fold change /veh SRD5A1 (11742802_a_at) / RFU TPSAB1 /// TPSB2 (11721975_s_at) / Fold change /veh TPSAB1 /// TPSB2 (11721975_s_at) / RFU GSTM3 (11746129_a_at) / Fold change /veh GSTM3 (11746129_a_at) / RFU IL23R (11737362_x_at) / Fold change /veh IL23R (11737362_x_at) / RFU TMEM51 (11727254_a_at) / Fold change /veh TMEM51 (11727254_a_at) / RFU PIWIL2 (11732686_x_at) / Fold change /veh PIWIL2 (11732686_x_at) / RFU ORM1 (11744905_x_at) / Fold change /veh ORM1 (11744905_x_at) / RFU CCDC152 (11743942_at) / Fold change /veh CCDC152 (11743942_at) / RFU ECM1 (11717891_a_at) / Fold change /veh ECM1 (11717891_a_at) / RFU IL23R (11748794_a_at) / Fold change /veh IL23R (11748794_a_at) / RFU TNFAIP8L3 (11732012_x_at) / Fold change /veh TNFAIP8L3 (11732012_x_at) / RFU MBOAT4 (11741988_at) / Fold change /veh MBOAT4 (11741988_at) / RFU 11764193_at / Fold change /veh 11764193_at / RFU TMEM53 (11763286_at) / Fold change /veh TMEM53 (11763286_at) / RFU MAGEB2 (11727129_at) / Fold change /veh MAGEB2 (11727129_at) / RFU TMEM200A (11744735_a_at) / Fold change /veh TMEM200A (11744735_a_at) / RFU CCDC152 (11751479_a_at) / Fold change /veh CCDC152 (11751479_a_at) / RFU FAM211A (11726209_a_at) / Fold change /veh FAM211A (11726209_a_at) / RFU RGS16 (11746705_a_at) / Fold change /veh RGS16 (11746705_a_at) / RFU VCAN (11755009_s_at) / Fold change /veh VCAN (11755009_s_at) / RFU RHOB (11743442_s_at) / Fold change /veh RHOB (11743442_s_at) / RFU RGS16 (11720943_a_at) / Fold change /veh RGS16 (11720943_a_at) / RFU RGS16 (11720944_at) / Fold change /veh RGS16 (11720944_at) / RFU, VPS4B / Fold change vs veh, VPS4B / RFU, CREB1 / Fold change vs veh, CREB1 / RFU, DNAJC13 / Fold change vs veh, DNAJC13 / RFU, GNAQ / Fold change vs veh, GNAQ / RFU, CDK5R1 / Fold change vs veh, CDK5R1 / RFU, ZRANB3 / Fold change vs veh, ZRANB3 / RFU, CUL4A / Fold change vs veh, CUL4A / RFU, CCNY / Fold change vs veh, CCNY / RFU, UFL1 / Fold change vs veh, UFL1 / RFU, COG3 / Fold change vs veh, COG3 / RFU, DIAPH2 / Fold change vs veh, DIAPH2 / RFU, SKA2 / Fold change vs veh, SKA2 / RFU, AFF3 / Fold change vs veh, AFF3 / RFU, LMF1 / Fold change vs veh, LMF1 / RFU, IPO11 / Fold change vs veh, IPO11 / RFU, DFFB / Fold change vs veh, DFFB / RFU, FOXP1 / Fold change vs veh, FOXP1 / RFU, CARD8 / Fold change vs veh, CARD8 / RFU, STRN3 / Fold change vs veh, STRN3 / RFU, ADK / Fold change vs veh, ADK / RFU, RASSF2 / Fold change vs veh, RASSF2 / RFU, WIPF1 / Fold change vs veh, WIPF1 / RFU, LARP1B / Fold change vs veh, LARP1B / RFU, RASA1 / Fold change vs veh, RASA1 / RFU, RB1 / Fold change vs veh, RB1 / RFU, PPFIA1 / Fold change vs veh, PPFIA1 / RFU, MAT2A / Fold change vs veh, MAT2A / RFU, CCT5 / Fold change vs veh, CCT5 / RFU, WDR92 / Fold change vs veh, WDR92 / RFU, CUX1 / Fold change vs veh, CUX1 / RFU, TTC7A / Fold change vs veh, TTC7A / RFU, TMEM135 / Fold change vs veh, TMEM135 / RFU, DEPTOR / Fold change vs veh, DEPTOR / RFU, CPM / Fold change vs veh, CPM / RFU, DNAJB6 / Fold change vs veh, DNAJB6 / RFU, CACNA2D3 / Fold change vs veh, CACNA2D3 / RFU, DTX4 / Fold change vs veh, DTX4 / RFU, TFCP2 / Fold change vs veh, TFCP2 / RFU, GMCL1 /// GMCL1P1 / Fold change vs veh, GMCL1 /// GMCL1P1 / RFU, AEBP2 / Fold change vs veh, AEBP2 / RFU, SNHG1 /// SNORD22 /// SNORD25 /// SNORD26 /// SNORD27 /// SNORD28 /// SNORD29 /// SNORD31 / Fold change vs veh, SNHG1 /// SNORD22 /// SNORD25 /// SNORD26 /// SNORD27 /// SNORD28 /// SNORD29 /// SNORD31 / Fold change (Aza/veh), C12orf56 (ProbeSet 11735607_a_at) / Fold change (ACY-1035/veh), C12orf56 (ProbeSet 11735607_a_at) / Fold change (Aza/veh), FGFR1OP (ProbeSet 11751329_s_at) / Fold change (ACY-1035/veh), FGFR1OP (ProbeSet 11751329_s_at) / Fold change (Aza/veh), VPS36 (ProbeSet 11739960_a_at) / Fold change (ACY-1035/veh), VPS36 (ProbeSet 11739960_a_at) / RFU SYPL1 (11715823_x_at) / Fold change /veh SYPL1 (11715823_x_at) / RFU IGFBP7 (11715501_s_at) / Fold change /veh IGFBP7 (11715501_s_at) / RFU REEP3 (11722064_at) / Fold change /veh REEP3 (11722064_at) / RFU IGLL1 (11728026_x_at) / Fold change /veh IGLL1 (11728026_x_at): dose or concentration left out as unconfirmed
Conditions: MV-4-11 cells, 48 hours

SMILES: Nc1ncn([C@@H]2O[C@H](CO)[C@@H](O)[C@H]2O)c(=O)n1 [azacitidine]
- Fold change /veh CMKLR1 (11741424_a_at): 1.02
